Data on eight molecules can be found in patent US20120121591A1 (priority 2009, published 2012).

Usually IC50 stands for the midpoint of a concentration-inhibition curve.

Structures are written as SMILES.

What all share (assay type): cell-based
One assay addresses hKv1.3 (Homo sapiens, UniProt P22001). Kind of assay: cell-based. As to conditions: Kv1.3 (IWQ) IC50 (nM, Avg).
Assay [1] concerns IL-2 secretion from T cells in human whole blood. As to conditions: read-out: WB (IL-2) IC50 (nM, Avg).
The test system of assay [2] is IFN-g secretion from T cells in human whole blood. The note with it: read-out: WB (IFNg) IC50 (nM, Avg).

Sequence of hKv1.3 (P22001 whole entry): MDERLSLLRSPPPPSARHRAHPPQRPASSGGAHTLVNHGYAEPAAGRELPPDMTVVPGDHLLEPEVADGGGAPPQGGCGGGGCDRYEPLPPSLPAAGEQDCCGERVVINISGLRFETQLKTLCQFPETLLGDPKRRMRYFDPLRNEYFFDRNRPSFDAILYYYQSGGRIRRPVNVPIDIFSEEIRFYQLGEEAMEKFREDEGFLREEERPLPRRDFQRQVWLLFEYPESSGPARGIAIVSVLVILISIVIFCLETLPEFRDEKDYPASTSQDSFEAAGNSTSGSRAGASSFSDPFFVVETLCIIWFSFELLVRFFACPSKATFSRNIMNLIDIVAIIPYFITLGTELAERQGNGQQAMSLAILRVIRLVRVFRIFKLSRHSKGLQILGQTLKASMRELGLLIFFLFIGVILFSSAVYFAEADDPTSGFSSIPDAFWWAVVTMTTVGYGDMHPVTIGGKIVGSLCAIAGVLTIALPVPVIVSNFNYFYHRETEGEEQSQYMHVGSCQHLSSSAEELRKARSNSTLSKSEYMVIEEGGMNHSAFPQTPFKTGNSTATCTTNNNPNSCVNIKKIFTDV

`CCCC[C@@H]1NC(=O)[C@H](CO)NC(=O)[C@H](Cc2c[nH]cn2)NC(=O)[C@H](CCCCN)NC(=O)[C@@H]2CSSC[C@@H]3NC(=O)[C@H]([C@@H](C)O)NC(=O)[C@H](CCCNC(=N)N)NC(=O)[C@H](CCCCN)NC(=O)[C@H](CSSC[C@H](NC(=O)[C@H](CCCNC(=N)N)NC(=O)[C@H](CO)NC(=O)[C@H](CCCCN)NC(=O)[C@@H]4CCCN4C(=O)[C@H]([C@@H](C)CC)NC(=O)[C@H]([C@@H](C)O)NC(=O)[C@H](CC(=O)O)NC(=O)[C@H]([C@@H](C)CC)NC(=O)[C@@H](NC(=O)[C@H](CO)NC(=O)[C@@H](N)CCCNC(=N)N)CSSC[C@@H](C(N)=O)NC(=O)[C@H]([C@@H](C)O)NC(=O)CNC3=O)C(=O)N[C@@H]([C@@H](C)O)C(=O)N[C@@H](C)C(=O)N[C@@H](Cc3ccccc3)C(=O)N[C@@H](CCCCN)C(=O)N2)NC(=O)[C@H](Cc2ccccc2)NC(=O)[C@H](Cc2cccc3ccccc23)NC(=O)[C@H](CC(C)C)NC(=O)[C@H](CCCNC(=N)N)NC(=O)[C@H](Cc2ccc(O)cc2)NC(=O)[C@H](CCCCN)NC1=O` [[Lys16,29; 1-Nal26;Arg30;Nle21]ShK-amide]: the IC50 at hKv1.3 amounted to 2.33 nM; in assay [1], 9.44 nM; in assay [2], 8.22 nM.
On the same counts, the results for `CC[C@H](C)[C@@H]1NC(=O)[C@@H](NC(=O)[C@H](CO)NC(=O)[C@@H](N)CCCNC(=N)N)CSSC[C@@H](C(N)=O)NC(=O)[C@H]([C@@H](C)O)NC(=O)CNC(=O)[C@@H]2CSSC[C@@H]3NC(=O)[C@H](CCCCN)NC(=O)[C@H](Cc4ccccc4)NC(=O)[C@H](C)NC(=O)[C@H]([C@@H](C)O)NC(=O)[C@H](CSSC[C@H](NC(=O)[C@H](Cc4ccccc4)NC(=O)[C@H](Cc4cccc5ccccc45)NC(=O)[C@H](CC(C)C)NC(=O)[C@H](CCCNC(=N)N)NC(=O)[C@H](Cc4ccc(O)cc4)NC(=O)[C@H](CCCCN)NC(=O)[C@H](CCSC)NC(=O)[C@H](CO)NC(=O)[C@H](Cc4c[nH]cn4)NC(=O)[C@H](CCCCN)NC3=O)C(=O)N[C@@H](CCCCN)C(=O)N[C@@H](CCCCN)C(=O)N[C@@H]([C@@H](C)O)C(=O)N2)NC(=O)[C@H](CCCNC(=N)N)NC(=O)[C@H](CO)NC(=O)[C@H](CCCCN)NC(=O)[C@@H]2CCCN2C(=O)[C@H]([C@@H](C)CC)NC(=O)[C@H]([C@@H](C)O)NC(=O)[C@H](CC(=O)O)NC1=O` [[Lys16,29; 1-Nal26]ShK-amide] are 0.341 nM, 0.808 nM and 1.98 nM.
In the same order, the values of `CC[C@H](C)[C@@H]1NC(=O)[C@@H](NC(=O)[C@H](CO)NC(=O)[C@@H](N)CCCNC(=N)N)CSSC[C@@H](C(N)=O)NC(=O)[C@H]([C@@H](C)O)NC(=O)CNC(=O)[C@@H]2CSSC[C@@H]3NC(=O)[C@H](CCCCN)NC(=O)[C@H](Cc4ccccc4)NC(=O)[C@H](C)NC(=O)[C@H]([C@@H](C)O)NC(=O)[C@H](CSSC[C@H](NC(=O)[C@H](Cc4ccccc4)NC(=O)[C@H](CO)NC(=O)[C@H](CC(C)C)NC(=O)[C@H](CCCNC(=N)N)NC(=O)[C@H](Cc4ccc(O)cc4)NC(=O)[C@H](CCCCN)NC(=O)[C@H](CCSC)NC(=O)[C@H](CO)NC(=O)[C@H](Cc4c[nH]cn4)NC(=O)[C@H](CCCCN)NC3=O)C(=O)N[C@@H](CCCCN)C(=O)N[C@@H](CCCNC(=N)N)C(=O)N[C@@H]([C@@H](C)O)C(=O)N2)NC(=O)[C@H](CCCNC(=N)N)NC(=O)[C@H](CO)NC(=O)[C@H](CCCCN)NC(=O)[C@@H]2CCCN2C(=O)[C@H]([C@@H](C)CC)NC(=O)[C@H]([C@@H](C)O)NC(=O)[C@H](CC(=O)O)NC1=O` [[Lys16,29; Arg30]ShK-amide] are 0.131 nM, 0.339 nM and 0.281 nM.
In the same order, the values of `CCCC[C@@H]1NC(=O)[C@H](CO)NC(=O)[C@H](Cc2c[nH]cn2)NC(=O)[C@H](CCCCN)NC(=O)[C@@H]2CSSC[C@@H]3NC(=O)[C@H]([C@@H](C)O)NC(=O)[C@H](CCCNC(=N)N)NC(=O)[C@H](CCCCN)NC(=O)[C@H](CSSC[C@H](NC(=O)[C@H](CCCNC(=N)N)NC(=O)[C@H](CO)NC(=O)[C@H](CCCCN)NC(=O)[C@@H]4CCCN4C(=O)[C@H]([C@@H](C)CC)NC(=O)[C@H]([C@@H](C)O)NC(=O)[C@H](CC(=O)O)NC(=O)[C@H]([C@@H](C)CC)NC(=O)[C@@H](NC(=O)[C@H](CO)NC(=O)[C@@H](N)CCCNC(=N)N)CSSC[C@@H](C(N)=O)NC(=O)[C@H]([C@@H](C)O)NC(=O)CNC3=O)C(=O)N[C@@H]([C@@H](C)O)C(=O)N[C@@H](C)C(=O)N[C@@H](Cc3ccccc3)C(=O)N[C@@H](CCCCN)C(=O)N2)NC(=O)[C@H](Cc2ccccc2)NC(=O)[C@H](CO)NC(=O)[C@H](CC(C)C)NC(=O)[C@H](CCCNC(=N)N)NC(=O)[C@H](Cc2ccc(O)cc2)NC(=O)[C@H](CCCCN)NC1=O` [[Lys16,29; Nle21,Arg30]ShK-amide] are 0.484 nM, 1.72 nM and 2.84 nM.
With `CC[C@H](C)[C@@H]1NC(=O)[C@@H](NC(=O)[C@H](CO)NC(=O)[C@@H](N)CCCNC(=N)N)CSSC[C@@H](C(N)=O)NC(=O)[C@H]([C@@H](C)O)NC(=O)CNC(=O)[C@@H]2CSSC[C@@H]3NC(=O)[C@H](CCCCN)NC(=O)[C@H](Cc4ccccc4)NC(=O)[C@H](C)NC(=O)[C@H]([C@@H](C)O)NC(=O)[C@H](CSSC[C@H](NC(=O)[C@H](Cc4c[nH]c5ccccc45)NC(=O)[C@H](CO)NC(=O)[C@H](CC(C)C)NC(=O)[C@H](CCCNC(=N)N)NC(=O)[C@H](Cc4ccc(O)cc4)NC(=O)[C@H](CCCCN)NC(=O)[C@H](CCSC)NC(=O)[C@H](CO)NC(=O)[C@H](Cc4c[nH]cn4)NC(=O)[C@H](CCCCN)NC3=O)C(=O)N[C@@H](CCCCN)C(=O)N[C@@H](CCCCN)C(=O)N[C@@H]([C@@H](C)O)C(=O)N2)NC(=O)[C@H](CCCNC(=N)N)NC(=O)[C@H](CO)NC(=O)[C@H](CCCCN)NC(=O)[C@@H]2CCCN2C(=O)[C@H]([C@@H](C)CC)NC(=O)[C@H]([C@@H](C)O)NC(=O)[C@H](CC(=O)O)NC1=O` [[Lys16,29;Trp27]ShK-amide], the IC50 was 0.121 nM against hKv1.3, 0.264 nM in assay [1] and 0.606 nM in assay [2].
On the same counts, the results for `CC[C@H](C)[C@@H]1NC(=O)[C@@H](NC(=O)[C@H](CO)NC(=O)[C@@H](N)CCCNC(=N)N)CSSC[C@@H](C(N)=O)NC(=O)[C@H]([C@@H](C)O)NC(=O)CNC(=O)[C@@H]2CSSC[C@@H]3NC(=O)[C@H](CCCCN)NC(=O)[C@H](Cc4ccccc4)NC(=O)[C@H](C)NC(=O)[C@H]([C@@H](C)O)NC(=O)[C@H](CSSC[C@H](NC(=O)[C@H](Cc4ccccc4)NC(=O)[C@H](Cc4ccc(O)cc4)NC(=O)[C@H](CC(C)C)NC(=O)[C@H](CCCNC(=N)N)NC(=O)[C@H](Cc4ccc(O)cc4)NC(=O)[C@H](CCCCN)NC(=O)[C@H](CCSC)NC(=O)[C@H](CO)NC(=O)[C@H](Cc4c[nH]cn4)NC(=O)[C@H](CCCCN)NC3=O)C(=O)N[C@@H](CCCCN)C(=O)N[C@@H](CCCCN)C(=O)N[C@@H]([C@@H](C)O)C(=O)N2)NC(=O)[C@H](CCCNC(=N)N)NC(=O)[C@H](CO)NC(=O)[C@H](CCCCN)NC(=O)[C@@H]2CCCN2C(=O)[C@H]([C@@H](C)CC)NC(=O)[C@H]([C@@H](C)O)NC(=O)[C@H](CC(=O)O)NC1=O` [[Lys16,29;Tyr26]ShK-amide] are 0.084 nM, 1.04 nM and 0.754 nM.
For the molecule `CC[C@H](C)[C@@H]1NC(=O)[C@@H](NC(=O)[C@H](CO)NC(=O)[C@@H](N)CCCNC(=N)N)CSSC[C@@H](C(N)=O)NC(=O)[C@H]([C@@H](C)O)NC(=O)CNC(=O)[C@@H]2CSSC[C@@H]3NC(=O)[C@H](CCCCN)NC(=O)[C@H](Cc4ccccc4)NC(=O)[C@H](C)NC(=O)[C@H]([C@@H](C)O)NC(=O)[C@H](CSSC[C@H](NC(=O)[C@H](Cc4ccc(O)cc4)NC(=O)[C@H](CO)NC(=O)[C@H](CC(C)C)NC(=O)[C@H](CCCNC(=N)N)NC(=O)[C@H](Cc4ccc(O)cc4)NC(=O)[C@H](CCCCN)NC(=O)[C@H](CCSC)NC(=O)[C@H](CO)NC(=O)[C@H](Cc4c[nH]cn4)NC(=O)[C@H](CCCCN)NC3=O)C(=O)N[C@@H](CCCCN)C(=O)N[C@@H](CCCCN)C(=O)N[C@@H]([C@@H](C)O)C(=O)N2)NC(=O)[C@H](CCCNC(=N)N)NC(=O)[C@H](CO)NC(=O)[C@H](CCCCN)NC(=O)[C@@H]2CCCN2C(=O)[C@H]([C@@H](C)CC)NC(=O)[C@H]([C@@H](C)O)NC(=O)[C@H](CC(=O)O)NC1=O` [[Lys16,29;Tyr27]ShK-amide], the IC50 against hKv1.3 came to 0.042 nM; in assay [1], 0.738 nM; in assay [2], 1.17 nM.
In the same order, the values of `CC[C@H](C)[C@@H]1NC(=O)[C@@H](NC(=O)[C@H](CO)NC(=O)[C@@H](N)CCCNC(=N)N)CSSC[C@@H](C(N)=O)NC(=O)[C@H]([C@@H](C)O)NC(=O)CNC(=O)[C@@H]2CSSC[C@@H]3NC(=O)[C@H](CCCCN)NC(=O)[C@H](Cc4ccccc4)NC(=O)[C@H](C)NC(=O)[C@H]([C@@H](C)O)NC(=O)[C@H](CSSC[C@H](NC(=O)[C@H](Cc4ccc5ccccc5c4)NC(=O)[C@H](CO)NC(=O)[C@H](CC(C)C)NC(=O)[C@H](CCCNC(=N)N)NC(=O)[C@H](Cc4ccc(O)cc4)NC(=O)[C@H](CCCCN)NC(=O)[C@H](CCSC)NC(=O)[C@H](CO)NC(=O)[C@H](Cc4c[nH]cn4)NC(=O)[C@H](CCCCN)NC3=O)C(=O)N[C@@H](CCCCN)C(=O)N[C@@H](CCCCN)C(=O)N[C@@H]([C@@H](C)O)C(=O)N2)NC(=O)[C@H](CCCNC(=N)N)NC(=O)[C@H](CO)NC(=O)[C@H](CCCCN)NC(=O)[C@@H]2CCCN2C(=O)[C@H]([C@@H](C)CC)NC(=O)[C@H]([C@@H](C)O)NC(=O)[C@H](CC(=O)O)NC1=O` [[Lys16, 29;2-Nal27]ShK-amide] are 10.1 nM, 13.1 nM and 24.7 nM.
